In assay [1] the test system is zebrafish (Danio rerio). As to the kind of experiment: Novel aquatic light/dark plus maze test. Particulars: for time frozen in the center of the maze: PETCO San Antonio zebrafish, N = 5-6, controls 81 ± 48 s. The format is in vivo.
The test system of assay [2] is zebrafish (Danio rerio). Briefly: Novel dive tank test. Particulars: 3 min exposure.
In another assay the test system is zebrafish. As to conditions: ref Lau et al., 2010; cited from earlier work.
Assay [3] deals with zebrafish (Danio rerio). Particulars: 0.05 h, 125 ug/mL.
Assay [4] has as its system zebrafish (Danio rerio). As to conditions: cited from earlier work; for bottom dwelling by zebrafish, effect: another study, ref Bencan, Sledge, & Levin, 2009.
Setting [5] is: 25 mg/L, Aquatic Eco-Systems zebrafish, N = 9.
The mark [6] stands for this setting: 25 mg/L, PETCO zebrafish, N = 8.
Where [7] appears, read: 125 mg/L, PETCO zebrafish, N = 4, not significant vs untreated.
Setting [8] is: 50 and 100 mg/L, zebrafish from PETCO San Antonio, TX.
Where [9] appears, read: nicotine 25 mg/L, AB, WIK, PETCO and GloFish lines.

Take `CCO` [ethanol]: in the assay with zebrafish (Danio rerio) [1] (0.5% ethanol, PETCO zebrafish, N = 7), the “total arm entries, effect vs controls” value was “significant increase in total arm entries”. The “time in white arms” value in the assay with zebrafish (Danio rerio) [1] (0.5% ethanol, PETCO zebrafish, N = 7, untreated controls 41 ± 17 s) is 126 ± 20 s. The “time spent in top 2/3 of dive tank, effect vs controls” value (from here on “time spent … vs controls”) in the assay on zebrafish (Danio rerio) [2] (0.5% ethanol, PETCO zebrafish, p = 0.08) was “non-significant trend toward zebrafish spending more time in the top 2/3 of the tank”.

On to `CNC1=Nc2ccc(Cl)cc2C(c2ccccc2)=[N+]([O-])C1` [chlordiazepoxide], for which, in the assay on zebrafish, the “time spent on the light side of a tank, effect” value was “increased the amount of time zebrafish spent on the light side of a tank”. The “total arm entries, effect” value with zebrafish (Danio rerio) [1] (setting [5]) is given as “did not differ in total arm entries”. The “time in the white arms” value with zebrafish (Danio rerio) [1] (25 mg/L, Aquatic Eco-Systems zebrafish, N = 9, controls 60 ± 10 s) came out at 124 ± 25 s. Further, the “white arm entries, % of total entries” value with zebrafish (Danio rerio) [1] (25 mg/L, Aquatic Eco-Systems zebrafish, N = 9, untreated 22 ± 2%) is given as 36 ± 5%. In addition, in the assay on zebrafish (Danio rerio) [2] (setting [5]), the “time spent … vs controls” value was “did not differ from untreated control fish”.

`COC(=O)[C@@H]1[C@H]2C[C@H]3c4[nH]c5ccccc5c4CCN3C[C@@H]2CC[C@@H]1O` [yohimbine]: the “total arm entries, effect” value in the assay with zebrafish (Danio rerio) [1] (setting [5]) was “did not differ in total arm entries”. Besides, in the assay on zebrafish (Danio rerio) [2] (setting [5]), the “time spent … vs controls” value is reported as “did not differ from untreated control fish”.

On to `CN1CCC[C@H]1c1cccnc1` [nicotine], for which the “arm entries, effect vs controls” value with zebrafish (Danio rerio) [1] (setting [6]) is reported as “Neither nicotine nor desipramine exposure had any effect on arm entries”. The “time frozen in the center of the maze” value in the assay on zebrafish (Danio rerio) [1] (50 mg/L) is recorded as 9 ± 5 s. The “time frozen in the center of the maze” value in the assay with zebrafish (Danio rerio) [1] (100 mg/L) amounted to 198 ± 46 s. For the same compound, in the assay on zebrafish (Danio rerio) [1] (setting [7]), the “% of white entries” value is on record as 25 ± 3%, the arm entries is given as 30 ± 9 entries, the “time frozen in the middle” value came to 57 ± 17 s and the “total time spent in white arms” value turned out to be 56 ± 24 s. For the same compound, in the assay on zebrafish (Danio rerio) [1] (setting [8]), the “time spent in white arms, effect” value is on record as “no effect” and the “white arm entries, effect” value is given as “no effect”. In addition, in the assay on zebrafish (Danio rerio) [1] (setting [9]), the “% white arm entries of total entries, effect” value is on record as “no effect”; the “initial time frozen in centre (latency to enter an arm), effect” value is “no influence”; the “time spent in white arms, effect” value was “nor was there an effect”; the “total number of arm entries, effect” value was “no effect”. Besides, in the assay with zebrafish (Danio rerio) [3], the “time at the dive tank top” value was found to be 4 ± 4 s. Also, the “bottom dwelling in novel dive tanks, effect” value in the assay on zebrafish (Danio rerio) [4] (50 and 100 mg/L, previous studies, ref Levin et al., 2007) is on record as “reduced zebrafish bottom dwelling at earlier time points”. Further, the “time spent in top of dive tank, effect vs untreated” value (from here on “time spent in top … vs untreated”) with zebrafish (Danio rerio) [2] (setting [6]) is listed as “Neither 25 mg/L nicotine (NIC) nor 0.05% DMSO affected behavior in the dive tank”. Also, the “time spent in top … vs untreated” value in the assay with zebrafish (Danio rerio) [2] (nicotine 25 mg/L, AB, WIK, PETCO and GloFish lines, 5 min test) is listed as “no significant anxiolytic effect”.

Regarding `C[S+](C)[O-]` [DMSO], in the assay with zebrafish (Danio rerio) [1] (0.05% DMSO, PETCO zebrafish, N = 8), the “total arm entries, effect vs controls” value was “significant increase in total arm entries”. For the same compound, the “time in white arms, effect vs controls” value with zebrafish (Danio rerio) [1] (0.05% DMSO, PETCO zebrafish, N = 8, p < 0.05) was “spent significantly more time in white arms than untreated controls”. Besides, in the assay on zebrafish (Danio rerio) [2] (0.05% DMSO, PETCO zebrafish), the “time spent … vs controls” value is reported as “no significant anxiolytic effect”.

Regarding `CN1C(=O)CN=C(c2ccccc2)c2cc(Cl)ccc21` [diazepam], the “bottom dwelling by zebrafish, effect” value with zebrafish (Danio rerio) [4] was “reduced bottom dwelling”.

As to `CNCCCN1c2ccccc2CCc2ccccc21` [desipramine], the “anxiolytic behaviors in the plus maze” value in the assay with zebrafish (Danio rerio) [1] (25 mg/L, PETCO zebrafish) is on record as “neither desipramine nor citalopram produced any anxiolytic behaviors in the plus maze”. In the assay on zebrafish (Danio rerio) [1] (setting [6]), the “arm entries, effect vs controls” value is reported as “Neither nicotine nor desipramine exposure had any effect on arm entries”. In addition, the “time spent in top … vs untreated” value with zebrafish (Danio rerio) [2] (setting [6]) was “significantly more time in the top of the dive tank than untreated fish”.

As to `O=C1CC2(CCCC2)CC(=O)N1CCCCN1CCN(c2ncccn2)CC1` [buspirone], the “bottom dwelling by zebrafish, effect” value with zebrafish (Danio rerio) [4] is listed as “reduced bottom dwelling”.

With `CN(C)CCCC1(c2ccc(F)cc2)OCc2cc(C#N)ccc21` (stereo not shown) [citalopram], in the assay on zebrafish (Danio rerio) [1] (100 mg/L, Aquatic Eco-Systems zebrafish), the “anxiolytic behaviors in the plus maze” value is “neither desipramine nor citalopram produced any anxiolytic behaviors in the plus maze”. For the same compound, the “total arm entries, effect” value in the assay on zebrafish (Danio rerio) [1] (100 mg/L, Aquatic Eco-Systems zebrafish, N = 9) was “did not differ in total arm entries”.

(Values after paper PMC2879659 (International journal of comparative psychology / ISCP ; …, 2010).)
